The data set is described as follows: Dissolution of trans-PMD glucovanillin conjugate in water. Particulars: solid 50 mg in water 0.1 ml. In kind it is physicochemical. An excerpt:
The resultant solution was cooled to room temperature and purified by chromatography over silica by gradient elution using 1:1 EtOAc/hexane to remove residual diol followed by 1:10 MeOH/dichloromethane to afford the title compound as an odourless white solid (0.73 g, 74%).

Turning to `COc1cc(C2O[C@H]3C[C@@H](C)CCC3C(C)(C)O2)ccc1O[C@@H]1O[C@H](CO)[C@@H](O)[C@H](O)[C@H]1O` (mixture of isomers) [Example 2, Racemic trans-PMD Glucovanillin Conjugate], the dissolution in water entry is reported as “readily dissolve”.
